Measured values published in patent publication US11000033B2, “Ketone or oxime compound, and herbicide” (NISSAN CHEMICAL CORPORATION, priority 2014, dated 2021).

Experiments:
Assay type in all cases: in vivo
Cyperus difformis = experiment: Test Example 3: herbicidal effect by foliage application, Wagner pot (symbol E); conditions: application herbicide amount 320 g/ha
In short: (§1)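 Weeds and rice were sown in alluvial soil under 0.1–0.5 cm of standing water and grown for 14 days in a 25–30 °C greenhouse. An emulsion of the compound, diluted in water to a set dose, was sprayed evenly onto the foliage. Effect was scored against fixed criteria 3 weeks after treatment.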

Lolium multiflorum Lam. = experiment: Test Example 5: herbicidal effect by foliage application, plastic box (symbol K); conditions: 320 g/ha, 3 weeks after application
In short: (§2)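 Greenhouse foliar test: seedlings at 14 days, grown 25° C. to 30° C. in sterilized diluvial soil; compound applied as an aqueous dilution of an emulsion; response read 3 weeks after spraying.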

Monochoria vaginalis = experiment: Test Example 1: herbicidal activity, application before weed generation in submerged conditions (symbol C); conditions: application herbicide amount 320 g/ha
In short: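 Greenhouse growth at 25–30 °C lasted 3 weeks after treatment, when each weed was graded 0–5 by herbicidal ratio. Treatment was a diluted emulsion applied to the water surface of 4 cm-submerged alluvial soil on the sowing day.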

Digitaria ciliaris = experiment: Test Example 4: herbicidal effect by soil treatment (symbol F); conditions: 320 g/ha
In short: (§3)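 Seeds were sown in sterilized diluvial soil, covered with about 1.5 cm of soil, and the soil surface was sprayed with a water-diluted emulsion of the compound at a predetermined rate. Plants grew in a greenhouse at 25° C. to 30° C.; effects were scored visually 3 weeks after application.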

corn = experiment: Test Example 4: effect on crop by soil treatment (symbol c); conditions: 320 g/ha
In short: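 Soil-treatment setup: crop and weed seeds were spot-sown into sterilized diluvial soil, then buried beneath approximately 1.5 cm of it, and the boxes were housed in a 25–30° C. greenhouse.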

beet = experiment: Test Example 4: effect on crop by soil treatment (symbol f); conditions: 320 g/ha
In short: (§4)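 Plants grew in a 25° C. to 30° C. greenhouse after spot-sowing of seeds, including beet, rapeseed, wheat and rice, into sterilized diluvial soil under roughly 1.5 cm of cover soil.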

Amaranthus retroflexus = experiment: Test Example 4: herbicidal effect by soil treatment (symbol N); conditions: 320 g/ha
In short: as §3

soybean = experiment: Test Example 4: effect on crop by soil treatment (symbol d); conditions: 320 g/ha
In short: as §4

Galium spurium = experiment: Test Example 5: herbicidal effect by foliage application, plastic box (symbol Q); conditions: 320 g/ha, 3 weeks after application
In short: as §2

[1] = test system: Echinochloa oryzacola Vasing.; experiment: Test Example 2: herbicidal activity, application during weed generation in submerged conditions (symbol A); conditions: Table 23; application herbicide amount 320 g/ha; grade 0-5 by criteria of Test Example 1
In short: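 Alluvial soil in pots was flooded to a 4 cm water depth and sown with a mix of the three weed species, then grown in a greenhouse at 25° C. to 30° C. At the one- to two-leaf stage, an emulsifiable formulation diluted in water to a set dose was applied to the water surface. Effects were scored visually 3 weeks later.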

Abutilon theophrasti = experiment: Test Example 4: herbicidal effect by soil treatment (symbol M); conditions: 320 g/ha
In short: as §3

Leptochloa chinensis = experiment: Test Example 3: herbicidal effect by foliage application, Wagner pot (symbol D); conditions: application herbicide amount 320 g/ha
In short: as §1

SMILES | herbicidal effect on E, grade 0-5 (Cyperus difformis) | K: Lolium multiflorum Lam., herbicidal effect (criteria 0-5) (Lolium multiflorum Lam.) | Herbicidal effect grade, C: Monochoria vaginalis (Monochoria vaginalis) | F: Digitaria ciliaris, herbicidal effect grade (Digitaria ciliaris) | c: corn, effect grade on crop (corn) | f: beet, effect grade on crop (beet) | N: Amaranthus retroflexus, herbicidal effect grade (Amaranthus retroflexus) | d: soybean, effect grade on crop (soybean) | Q: Galium spurium, herbicidal effect (criteria 0-5) (Galium spurium) | Herbicidal effect grade, A: Echinochloa oryzacola Vasing. [1] | M: Abutilon theophrasti, herbicidal effect grade (Abutilon theophrasti) | herbicidal effect on D (Leptochloa chinensis), grade 0-5 (Leptochloa chinensis)
CON=C(CC1CC(O)=C(c2c(C)cc(C)cc2C)C1=O)C1CCCC1 (stereo not drawn) [1-078] | 0 (Herbicidal ratio of 5% or lower (almost no effect)) | 5 (Herbicidal ratio of 90% or more (almost completely withered)) | 0 (Herbicidal ratio of 5% or lower (almost no effect)) | 5 (Herbicidal ratio of 90% or more (almost completely withered)) | 4 (Herbicidal ratio of 70% or higher and lower than 90%) | 0 (Herbicidal ratio of 5% or lower (almost no effect)) | 0 (Herbicidal ratio of 5% or lower (almost no effect)) | 0 (Herbicidal ratio of 5% or lower (almost no effect)) | 0 (Herbicidal ratio of 5% or lower (almost no effect)) | 4 (Herbicidal ratio of 70% or higher and lower than 90%) | 0 (Herbicidal ratio of 5% or lower (almost no effect)) | 4 (Herbicidal ratio of 70% or higher and lower than 90%)
CON=C(C)CC1CC(OC(=O)COc2ccc(Br)cc2)=C(c2c(C)cc(C)cc2C)C1=O (stereo not drawn) [1-081] | 5 (Herbicidal ratio of 90% or more (almost completely withered)) | 5 (Herbicidal ratio of 90% or more (almost completely withered)) | 2 (Herbicidal ratio of 20% or higher and lower than 40%) | 5 (Herbicidal ratio of 90% or more (almost completely withered)) | 4 (Herbicidal ratio of 70% or higher and lower than 90%) | 0 (Herbicidal ratio of 5% or lower (almost no effect)) | 4 (Herbicidal ratio of 70% or higher and lower than 90%) | 1 (Herbicidal ratio of 5% or higher and lower than 20%) | 0 (Herbicidal ratio of 5% or lower (almost no effect)) | 5 (Herbicidal ratio of 90% or more (almost completely withered)) | 4 (Herbicidal ratio of 70% or higher and lower than 90%) | 5 (Herbicidal ratio of 90% or more (almost completely withered))
CON=C(C)CC1CC(OC(=O)COc2ccc(I)cc2)=C(c2c(C)cc(C)cc2C)C1=O (stereo not drawn) [1-082] | 5 (Herbicidal ratio of 90% or more (almost completely withered)) | 5 (Herbicidal ratio of 90% or more (almost completely withered)) | 2 (Herbicidal ratio of 20% or higher and lower than 40%) | 5 (Herbicidal ratio of 90% or more (almost completely withered)) | 4 (Herbicidal ratio of 70% or higher and lower than 90%) | 0 (Herbicidal ratio of 5% or lower (almost no effect)) | 5 (Herbicidal ratio of 90% or more (almost completely withered)) | 2 (Herbicidal ratio of 20% or higher and lower than 40%) | 0 (Herbicidal ratio of 5% or lower (almost no effect)) | 5 (Herbicidal ratio of 90% or more (almost completely withered)) | 5 (Herbicidal ratio of 90% or more (almost completely withered)) | 5 (Herbicidal ratio of 90% or more (almost completely withered))
CON=C(C)CC1CC(OC(=O)COc2ccc3ccccc3c2)=C(c2c(C)cc(C)cc2C)C1=O (stereo not drawn) [1-083] | 5 (Herbicidal ratio of 90% or more (almost completely withered)) | 5 (Herbicidal ratio of 90% or more (almost completely withered)) | 1 (Herbicidal ratio of 5% or higher and lower than 20%) | 5 (Herbicidal ratio of 90% or more (almost completely withered)) | 4 (Herbicidal ratio of 70% or higher and lower than 90%) | 0 (Herbicidal ratio of 5% or lower (almost no effect)) | 5 (Herbicidal ratio of 90% or more (almost completely withered)) | 1 (Herbicidal ratio of 5% or higher and lower than 20%) | 0 (Herbicidal ratio of 5% or lower (almost no effect)) | 5 (Herbicidal ratio of 90% or more (almost completely withered)) | 4 (Herbicidal ratio of 70% or higher and lower than 90%) | 5 (Herbicidal ratio of 90% or more (almost completely withered))
CON=C(CC1CC(O)=C(c2c(C)cc(C)cc2C)C1=O)C1CCCCC1 (stereo not drawn) [1-085] | 0 (Herbicidal ratio of 5% or lower (almost no effect)) | 3 (Herbicidal ratio of 40% or higher and lower than 70%) | 0 (Herbicidal ratio of 5% or lower (almost no effect)) | 0 (Herbicidal ratio of 5% or lower (almost no effect)) | 0 (Herbicidal ratio of 5% or lower (almost no effect)) | 0 (Herbicidal ratio of 5% or lower (almost no effect)) | 0 (Herbicidal ratio of 5% or lower (almost no effect)) | 0 (Herbicidal ratio of 5% or lower (almost no effect)) | 0 (Herbicidal ratio of 5% or lower (almost no effect)) | 3 (Herbicidal ratio of 40% or higher and lower than 70%) | 0 (Herbicidal ratio of 5% or lower (almost no effect)) | 4 (Herbicidal ratio of 70% or higher and lower than 90%)
C=CC(CC1CC(O)=C(c2c(C)cc(C)cc2C)C1=O)=NOC (stereo not drawn) [1-086] | 4 (Herbicidal ratio of 70% or higher and lower than 90%) | 5 (Herbicidal ratio of 90% or more (almost completely withered)) | 0 (Herbicidal ratio of 5% or lower (almost no effect)) | 2 (Herbicidal ratio of 20% or higher and lower than 40%) | 1 (Herbicidal ratio of 5% or higher and lower than 20%) | 0 (Herbicidal ratio of 5% or lower (almost no effect)) | 0 (Herbicidal ratio of 5% or lower (almost no effect)) | 0 (Herbicidal ratio of 5% or lower (almost no effect)) | 0 (Herbicidal ratio of 5% or lower (almost no effect)) | 5 (Herbicidal ratio of 90% or more (almost completely withered)) | 0 (Herbicidal ratio of 5% or lower (almost no effect)) | 4 (Herbicidal ratio of 70% or higher and lower than 90%)
CON=C(C)CC1CC(OC(=O)C(C)Oc2ccc(Oc3cnc4cc(Cl)ccc4n3)cc2)=C(c2c(C)cc(C)cc2C)C1=O (stereo not drawn) [1-087] | 5 (Herbicidal ratio of 90% or more (almost completely withered)) | 5 (Herbicidal ratio of 90% or more (almost completely withered)) | 1 (Herbicidal ratio of 5% or higher and lower than 20%) | 5 (Herbicidal ratio of 90% or more (almost completely withered)) | 3 (Herbicidal ratio of 40% or higher and lower than 70%) | 4 (Herbicidal ratio of 70% or higher and lower than 90%) | 5 (Herbicidal ratio of 90% or more (almost completely withered)) | 2 (Herbicidal ratio of 20% or higher and lower than 40%) | 4 (Herbicidal ratio of 70% or higher and lower than 90%) | 5 (Herbicidal ratio of 90% or more (almost completely withered)) | 5 (Herbicidal ratio of 90% or more (almost completely withered)) | 5 (Herbicidal ratio of 90% or more (almost completely withered))
